This note sets out measurements from patent EP4559919A1, “TRICYCLIC-CONTAINING MACROCYCLIC COMPOUND AND USE THEREOF” (Medshine Discovery Inc., priority 2022, dated 2024).

In test [1] the target is T1, ALK(G1202R/L1196M) (Homo sapiens, UniProt Q9UM73, G1202R/L1196M).
T1 construct: purchased Carna
As to the kind of experiment: In vitro kinase inhibitory activity assay, Experimental method 2 (ADP-Glo). Format: biochemical. Here is the method:
(§1) The kinase inhibitory activity assays of the compounds against ALK, ALK^L1196M, ALK^G1202R, ALK^G1202R/L1196M, ROS1, and TRKB were conducted at Wuhan Heyan Biotechnology Co., Ltd. or Hefei PreceDo Biotechnology Co., Ltd.
(§2) Experimental materials: ALK (G1202R/L1196M) Active and TRKB were purchased from Carna; IGF1 was purchased from GenScript; PolyE4Y1 was purchased from SIGMA; ADP-Glo™ Reagent was purchased from Promega; ATP was purchased from Promega; Kinase Detection Reagent was purchased from Promega; microplate reader ( PerkinElmer).
Reaction system: ALK(G1202R/L1196M) reaction concentration 8.63 nM, ATP concentration 5.0 µM, substrate IGF1 concentration 0.2 µg/µL. ALK(G1202R/L1196M) kinase buffer was 40 mM Tris-HCl (pH 7.5) + 20 mM magnesium chloride + 0.1 mg/mL BSA + 50 µM DTT.
(§3) ALK(G1202R/L1196M) and TRKB detection method: 2 µL of kinase and 1 µL of compound were added to a 384-well plate; 2 µL of substrate/ATP mixture was added and incubated at room temperature in the dark for 60 minutes; 5 µL of ADP-Glo™ reagent was added and incubated at room temperature for 40 minutes; 10 µL of kinase detection reagent was added and incubated at room temperature for 30 minutes; the plate was read on a microplate reader, and luminescence was recorded (integration time set to 0.5 seconds).
(§4) The IC50 value could then be derived by performing a curve fit using a four-parameter logistic model (obtained using the "log(inhibitor) vs. response -- Variable slope" mode in GraphPad Prism).
(In ADP-Glo the light output rises with the ADP produced.)

The target of test [2] is T2, TRKB (Homo sapiens, UniProt Q16620).
T2 construct: purchased Carna
T2 sequence (Q16620 32-822): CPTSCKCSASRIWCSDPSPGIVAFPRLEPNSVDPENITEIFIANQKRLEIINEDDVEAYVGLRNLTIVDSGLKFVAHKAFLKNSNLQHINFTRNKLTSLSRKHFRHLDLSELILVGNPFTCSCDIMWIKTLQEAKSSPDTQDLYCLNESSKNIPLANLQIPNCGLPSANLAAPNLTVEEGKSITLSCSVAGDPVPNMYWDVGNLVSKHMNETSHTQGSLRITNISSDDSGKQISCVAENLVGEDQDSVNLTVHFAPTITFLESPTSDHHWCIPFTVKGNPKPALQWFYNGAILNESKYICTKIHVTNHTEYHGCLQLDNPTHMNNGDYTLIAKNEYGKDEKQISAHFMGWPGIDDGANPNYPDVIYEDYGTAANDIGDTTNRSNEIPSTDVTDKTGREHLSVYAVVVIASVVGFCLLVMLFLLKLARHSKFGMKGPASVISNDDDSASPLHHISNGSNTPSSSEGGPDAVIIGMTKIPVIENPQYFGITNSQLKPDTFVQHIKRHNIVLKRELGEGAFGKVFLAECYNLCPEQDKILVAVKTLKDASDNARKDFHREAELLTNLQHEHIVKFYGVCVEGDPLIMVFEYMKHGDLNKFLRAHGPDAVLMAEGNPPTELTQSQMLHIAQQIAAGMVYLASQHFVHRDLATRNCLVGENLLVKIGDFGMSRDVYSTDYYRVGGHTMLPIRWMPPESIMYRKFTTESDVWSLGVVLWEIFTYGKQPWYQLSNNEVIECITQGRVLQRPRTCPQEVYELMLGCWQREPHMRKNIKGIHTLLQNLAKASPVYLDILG
The test is described as above. Format: biochemical. Here is the method:
as §1, §2
TRKB reaction concentration 4.47 nM, ATP concentration 5.0 µM, substrate PolyE4Y1 concentration 0.2 µg/µL. TRKB kinase buffer was 40 mM Tris-HCl (pH 7.5) + 20 mM magnesium chloride + 2.5 mM manganese chloride + 0.1mg/mL BSA+ 50 µM DTT.
as §3, §4

Test [3] has as its system Ba/F3-EML4-ALK-G1202R/L1196M. The test is described as follows: Anti-proliferative activity test on Ba/F3 cell lines (CellTiter-Glo). Conditions: Ba/F3 EML4-ALK-G1202R-L1196M; 72 hours; read-out: Half maximal inhibitory concentration IC50 for cells Ba/F3-EML4-ALK-G1202R/L1196 M. Format: cell-based. Here is the method:
(§5) • (1) Cell culture: The cell lines were cultured in an incubator at 37°C with 5% CO2. Regular passaging was performed, and cells in the logarithmic growth phase were selected for plating; • (2) Preparation of compound storage plate: The test compounds were prepared into a 10 mM solution with DMSO (Stock Con.); The compounds were then prepared into a 1 mM solution with DMSO (Work Con.); 1 µL of the stock solution was mixed with 9 µL of DMSO to prepare a 10 µL work solution. • (3) Preparation of 1000× compound storage plate (tube): The compounds were 3-fold serially diluted from […] to the lowest concentration, for a total of 8 concentrations; • (4) Preparation of 20× compound working solution: 98 µL of cell culture medium was added to a flat-bottomed 96-well transparent drug plate. From the 1000× compound storage plate, 2 µL of the compound was pipetted into the cell culture medium in the 96-well transparent drug plate. In the solvent control, 2 µL of DMSO was added. After the compound or DMSO was added, the mixture was homogenized using a pipette. • (5) Cells were stained with trypan blue and viable cells were counted to ensure a cell viability of 90% or more. The cell concentration was adjusted to an appropriate concentration; • (6) 95 µL of cell suspension (2000 cells/well) was added to each well of the compound assay cell plate, and cell-free culture medium containing 0.1% DMSO was added to the Min control wells; • (7) Administration in the compound assay cell plate: 5 µL of 20× compound working solution was added to the cell culture plate, 5 µL of DMSO-cell culture medium mixture was added to the Max control wells, and the final concentration of DMSO was 0.1%; • (8) The culture plate was then incubated in an incubator at 37°C with 5% CO2 for 72 hours; • (9) The following operations were conducted in accordance with the instructions of the Promega CellTiter-Glo Luminescent Cell Viability Assay Kit (Promega-G7573): CellTiter-Glo buffer was thawed and brought to room temperature; CellTiter-Glo substrate was brought to room temperature; CellTiter-Glo buffer was added to a bottle of CellTiter-Glo substrate to dissolve the substrate, thereby preparing CellTiter-Glo working solution; The mixture was slowly vortexed and shaken to be fully dissolved; The cell culture plate was removed and allowed to equilibrate to room temperature for 10 minutes; 50 µL (equal to half the volume of cell culture medium in each well) of CellTiter-Glo working solution was added to each well; The culture plate was shaken on an orbital shaker for 2 minutes to induce cell lysis; The plate was then left at room temperature for 10 minutes to stabilize the luminescent signal; The luminescent signal was detected using a SpectraMax Paradigm plate reader; Cell viability assay was conducted using CellTiter-Glo luminescence method.
(§6) Data analysis: The corresponding […] value (RLU) for each well was obtained from SpectraMax Paradigm readings. […] The inhibition rates corresponding to compounds at different concentrations were calculated in Excel, and the inhibition rate curves were plotted using GraphPad Prism software to calculate relevant parameters, including the maximum and minimum inhibition rates of the cells and the IC50 value.
In general terms: ATP-based viability assays read luminescence as a measure of living cells.

Test [4] has as its system Ba/F3-TEL-TRKB. The test is described as above. Format: cell-based. Conditions: Mus musculus, BaF3; 72 hours; read-out: Half maximal inhibitory concentration IC50 for cells Ba/F3-TEL-TRKB. Here is the method: as §5, §6
For test [5], the target named is T3, ALK(G1202R) (Homo sapiens, UniProt Q9UM73, G1202R).
T3 construct: purchased Carna
T3 sequence (Q9UM73 19-1620 G1202R): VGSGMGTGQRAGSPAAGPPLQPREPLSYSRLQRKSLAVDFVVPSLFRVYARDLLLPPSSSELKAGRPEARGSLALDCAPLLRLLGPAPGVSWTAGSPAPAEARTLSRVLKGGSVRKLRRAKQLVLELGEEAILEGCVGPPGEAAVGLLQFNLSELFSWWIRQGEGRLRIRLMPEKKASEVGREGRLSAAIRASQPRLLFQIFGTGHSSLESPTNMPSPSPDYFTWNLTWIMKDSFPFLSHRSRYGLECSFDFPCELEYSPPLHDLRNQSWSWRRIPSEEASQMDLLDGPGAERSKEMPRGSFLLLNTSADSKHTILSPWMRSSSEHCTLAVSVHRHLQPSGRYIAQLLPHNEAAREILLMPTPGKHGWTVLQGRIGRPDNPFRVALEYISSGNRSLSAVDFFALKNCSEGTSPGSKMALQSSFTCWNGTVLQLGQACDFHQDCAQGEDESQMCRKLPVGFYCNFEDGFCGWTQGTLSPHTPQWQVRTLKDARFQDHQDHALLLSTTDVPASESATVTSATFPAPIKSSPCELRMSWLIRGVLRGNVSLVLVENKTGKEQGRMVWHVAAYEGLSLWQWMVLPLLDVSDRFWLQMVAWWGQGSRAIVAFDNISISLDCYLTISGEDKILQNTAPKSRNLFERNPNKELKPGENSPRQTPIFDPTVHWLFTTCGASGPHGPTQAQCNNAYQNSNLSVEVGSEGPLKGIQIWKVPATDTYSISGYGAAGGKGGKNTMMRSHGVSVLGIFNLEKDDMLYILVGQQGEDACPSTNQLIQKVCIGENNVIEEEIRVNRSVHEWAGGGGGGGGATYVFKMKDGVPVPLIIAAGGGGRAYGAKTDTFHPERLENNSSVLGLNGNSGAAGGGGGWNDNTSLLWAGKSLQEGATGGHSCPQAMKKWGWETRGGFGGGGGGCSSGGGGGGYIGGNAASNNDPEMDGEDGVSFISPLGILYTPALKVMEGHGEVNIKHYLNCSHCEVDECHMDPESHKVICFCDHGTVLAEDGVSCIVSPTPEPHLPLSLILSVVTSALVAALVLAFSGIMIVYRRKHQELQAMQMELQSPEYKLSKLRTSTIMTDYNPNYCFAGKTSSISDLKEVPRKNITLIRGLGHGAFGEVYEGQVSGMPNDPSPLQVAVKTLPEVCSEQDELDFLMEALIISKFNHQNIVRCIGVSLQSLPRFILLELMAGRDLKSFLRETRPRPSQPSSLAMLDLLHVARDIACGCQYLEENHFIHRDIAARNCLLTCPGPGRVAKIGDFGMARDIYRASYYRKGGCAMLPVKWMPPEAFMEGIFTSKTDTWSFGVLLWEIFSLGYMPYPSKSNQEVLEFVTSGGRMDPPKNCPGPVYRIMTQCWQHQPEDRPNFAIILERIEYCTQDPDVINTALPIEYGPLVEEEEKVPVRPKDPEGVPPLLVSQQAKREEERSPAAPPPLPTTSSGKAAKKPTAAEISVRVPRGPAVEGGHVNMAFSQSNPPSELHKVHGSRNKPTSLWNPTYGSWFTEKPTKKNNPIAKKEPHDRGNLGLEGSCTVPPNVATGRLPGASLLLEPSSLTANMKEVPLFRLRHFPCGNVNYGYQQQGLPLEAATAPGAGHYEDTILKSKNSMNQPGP
The test is described as follows: In vitro kinase inhibitory activity assay, Experimental method 1 (ADP-Glo). Format: biochemical. To be noted: final ATP 50 µM, read-out: Kinase half maximal inhibitory concentration IC50 ALK^G1202R. Here is the method:
as §1
(§7) Experimental materials: ALK Active, ALK(L1196M) Active, ALK(G1202R) Active, and ALK(G1202R/L1196M) Active were purchased from Carna; SRC Substrate was purchased from SignalChem; IGF1R tide was purchased from SignalChem; ADP-Glo Kinase Assay was purchased from Promega; Kinase assay buffer III was purchased from SignalChem; and Nivo multimode plate reader (PerkinElmer).
(§8) Each concentration of the compounds was further diluted 20-fold using 1X kinase buffer to prepare compound working solutions containing 5% DMSO. 1 µL of each concentration gradient working solution was added to a microplate, with duplicate wells set for each concentration. 2 µL of ALK enzyme (15 ng per well) and 2 µL of a mixture of substrate and ATP (25 µM ATP, 0.5 µg/µL SRC Substrate) were added to the microplate. […] The reaction system was placed at 25°C for 1 hour. After the reaction, 5 µL of ADP-Glo reagent was added to each well and reacted at 25°C for another 40 minutes. After the reaction, 10 µL of kinase detection reagent was added to each well and reacted at 25°C for 30 minutes. Chemiluminescence was then measured using the PerkinElmer Nivo multimode plate reader with an integration time of 0.5 seconds.
ALK (G1202R) kinase inhibition assay method: The preparation method for the working solution of the test compound was the same as for the ALK kinase. […] The subsequent steps were the same as for ALK kinase.
as §4

The target of test [6] is T1, ALK(G1202R/L1196M). The description is as above. Conditions: final ATP 50 µM, read-out: Kinase half maximal inhibitory concentration IC50 ALK^G1202R/L1196M. Format: biochemical. Here is the method: as §1, §7, §8
ALK (G1202R/L1196M) kinase inhibition assay method: The preparation method for the working solution of the test compound was the same as for the ALK kinase. […] The subsequent steps were the same as for ALK kinase.
as §4

Test [7] deals with T2, TRKB. The test is described as above. Format: biochemical. Conditions: read-out: Kinase half maximal inhibitory concentration IC50 TRKB. Here is the method:
as §1, §7, §8
TRKB kinase inhibition assay method: The preparation method for the working solution of the test compound was the same as for the ALK kinase. 2 µL of TRKB (0.5 ng per well) and 4 µL of a mixture of substrate and ATP (5 µM ATP, 0.5 µM SRC Substrate) were added to the microplate. […] The subsequent steps were the same as for ALK kinase.
as §4

Where [8] appears, read: Experimental method 2, ATP 5.0 µM, substrate IGF1, read-out: Kinase half maximal inhibitory concentration IC50 ALK^G1202R/L1196M.
Where [9] appears, read: Experimental method 2, ATP 5.0 µM, substrate PolyE4Y1, read-out: Kinase half maximal inhibitory concentration IC50 TRKB.

T1 sequence (Q9UM73 19-1620 L1196M/G1202R): as the sequence (Q9UM73 19-1620 G1202R) above, with L1178M counted along it

In the case of `Cc1nn2cc3c4nc2c1C(=O)NC(C)(C)COc1ccc(F)cc1CN4[C@H](C(F)F)CO3` [Compound 006], the IC50 in test [1] (setting [8]) came out at 0.6 nM; in test [2] (setting [9]), 1.2 nM.

As for `CC1(C)COc2ccc(F)cc2CN2c3nc4c(cc3OC[C@H]2C(F)F)ncn4C(=S)N1` [Compound 008], the IC50 in test [1] (setting [8]) came out at 1.7 nM; in test [2] (setting [9]), 7.8 nM.

Turning to `CC1(C)COc2ccc(F)cc2CN2c3nc4c(c(C5CC5)nn4cc3OC[C@H]2C(F)F)C(=O)N1` [Compound 017], the values for the IC50 in test [1] (setting [8]) and in test [2] (setting [9]) were 15.3 nM and 31.3 nM, respectively.

For `CON=C1NCC2(CC2)COc2ccc(F)cc2CN2c3nc4c1cnn4cc3OC[C@H]2C(F)F` [Compound 011], the IC50 in test [1] (setting [8]) was 1.7 nM; in test [2] (setting [9]), 3.4 nM.

For `CC1(C)COc2ccc(F)cc2CN2c3nc4c(c(C#CC5CC5)nn4cc3OC[C@H]2C(F)F)C(=O)N1` [Compound 020], the figures for the IC50 in test [1] (setting [8]) and in test [2] (setting [9]) were 1.1 nM and 10 nM, respectively.

For `Cc1nc2cc3c4nc2n1C(=O)NC(C)(C)COc1ccc(F)cc1CN4[C@H](C(F)F)CO3` [Compound 012], the IC50 in test [1] worked out at 1.5 nM; in test [3] it was 7 nM; in test [4], 5.2 nM; in test [2], 2.9 nM.

Regarding `O=C1NC2(CCC2)COc2ccc(F)cc2CN2c3nc4c1c(Br)nn4cc3OC[C@H]2C(F)F` [Compound 021], the IC50 in test [1] (setting [8]) is 4 nM; in test [2] (setting [9]), 7 nM.

As to `COCCON=C1NC(C)(C)COc2ccc(F)cc2CN2c3nc4c1cnn4cc3OC[C@H]2C(F)F` [Compound 003], the values for the IC50 in test [5] and in test [6] were 12.2 nM and 11.3 nM, respectively.

As for `Cc1nn2cc3c4nc2c1C(=O)NC(C)(C)COc1ncc(F)cc1CN4[C@H](C(F)F)CO3` [Compound 015], the IC50 in test [1] (setting [8]) was found to be 0.6 nM; in test [2] (setting [9]) it was 1.1 nM.

Take `CC1(C)COc2ncc(F)cc2CN2c3nc4c(cnn4cc3OC[C@H]2C(F)F)C(=S)N1` [Compound 004]: the values for the IC50 in test [6] and in test [7] were 1.3 nM and 2.4 nM, respectively.

Consider `O=C1N[C@H]2C[C@H](C2)Oc2ccc(F)cc2CN2c3nc4c1c(Br)nn4cc3OC[C@H]2C(F)F` [Compound 023], for which the IC50 was found to be 1.2 nM in test [1] (setting [8]), 10.8 nM in test [3], 1.8 nM in test [4] and 1.5 nM in test [2] (setting [9]).

Turning to `CCON=C1NC(C)(C)COc2ccc(F)cc2CN2c3nc4c1cnn4cc3OC[C@H]2C(F)F` [Compound 002], the IC50 in test [5] is 27.8 nM; in test [6] it was 14.6 nM.

On to `O=C1NC2(CC2)COc2ccc(F)cc2CN2c3nc4c(cc3OC[C@H]2C(F)F)ncn41` [Compound 014], for which the IC50 in test [1] (setting [8]) stood at 0.4 nM; in test [3] it was 5.3 nM; in test [4], 0.2 nM; in test [2] (setting [9]) it was 0.7 nM.

Regarding `CC1(C)COc2ccc(F)cc2CN2c3nc4c(c(C#N)nn4cc3OC[C@H]2C(F)F)C(=O)N1` [Compound 010], the IC50 came out at 1.5 nM in test [1] (setting [8]) and 4.4 nM in test [2] (setting [9]).

For the compound `CC1(C)COc2ccc(F)cc2CN2c3nc4c(cc3OC[C@H]2C(F)F)ncn4C(=O)N1` [Compound 007], the IC50 in test [1] worked out at 1 nM; in test [2] it was 2.6 nM.

As for `CC1(C)COc2ccc(F)cc2CN2c3nc4c(c(Br)nn4cc3OC[C@H]2C(F)F)C(=O)N1` [Compound 009], the IC50 was found to be 0.8 nM in test [1] (setting [8]), 7.3 nM in test [3], 7.8 nM in test [4] and 2 nM in test [2] (setting [9]).
